Experimental data taken from US20060079453A1, “Hla binding peptides and their uses” (priority 2002, published 2006).
Like-named read-outs stand apart in the source and are kept apart here. No end group written: not given here.

Key:
Test in all cases: biochemical
Format in all cases: binding
HLA-DR DRB1*0301 (DR3) = HLA-DR DRB1*0301 (DR3) (Homo sapiens, UniProt P01903+P01911, A100K/A102G/A103R/A169T/F55Y/I96L/K41T/L162R/M171V/P40S/Q125H/Q178H/Q39Y/R42S/S66N/T106N/T262R/W38E/Y61H)
HLA-DR DRB1*1101 (DR11) = HLA-DR DRB1*1101 (DR11) (Homo sapiens, UniProt P01903+P01911, A100R/A169T/A87E/I96F/K41T/L162R/M171V/P40S/Q125H/Q178H/Q39Y/Q99D/R42S/S66Y/T262R/V115G/W38E)
Sequence of HLA-DR DRB1*1101 (DR11) (P01903 26-254 limits assumed, other chains not shown): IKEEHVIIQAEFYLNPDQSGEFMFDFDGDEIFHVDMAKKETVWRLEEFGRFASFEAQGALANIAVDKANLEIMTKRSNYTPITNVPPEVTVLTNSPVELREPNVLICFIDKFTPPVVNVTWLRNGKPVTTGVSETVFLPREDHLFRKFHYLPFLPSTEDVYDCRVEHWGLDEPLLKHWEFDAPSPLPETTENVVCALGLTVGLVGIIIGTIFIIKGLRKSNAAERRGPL

HLA-DR DRB1*1302 (DR13) = HLA-DR DRB1*1302 (DR13) (Homo sapiens, UniProt P01903+P01911, A100E/A169T/K41T/L162R/M171V/P40S/Q125H/Q178H/Q39Y/Q99D/R42S/S66N/T262R/V115G/W38E/Y61H)
Sequence of HLA-DR DRB1*1302 (DR13) (P01903 26-254 limits assumed, other chains not shown): as above

HLA-DR DRB4*0101 (DR53) = HLA-DR DRB4*0101 (DR53) (Homo sapiens, UniProt P01903+P13762, G164S)
HLA-DR DRB5*0101 (DR51) = HLA-DR DRB5*0101 (DR51) (Homo sapiens, UniProt P01903+Q30154)
HLA-DR DRB1*1501 (DR15) = HLA-DR DRB1*1501 (DR15) (Homo sapiens, UniProt P01903+P01911)
HLA-DR DRB1*0401 (DR4) = HLA-DR DRB1*0401 (DR4) (Homo sapiens, UniProt P01903+P01911, A100K/A169T/F76Y/I96L/K127E/L162R/M171V/N62H/P40V/Q125Y/R42H/S133A/S149N/S66Y/V115G/V209L/W38E)
HLA-DR DRB1*0701 (DR7) = HLA-DR DRB1*0701 (DR7) (Homo sapiens, UniProt P01903+P01911, A100R/A102G/A103Q/D57E/D86V/E43K/F76Y/K127E/L162R/M171V/P40G/Q125H/Q99D/R33Q/R42Y/R54Q/S133A/S66F/T210M/V115G/Y107V/Y59L/Y89S)
HLA-DR DRB1*0101 (DR1) = HLA-DR DRB1*0101 (DR1) (Homo sapiens, UniProt P01903+P01911, A100R/D57E/F55L/F60I/F76Y/I96L/L162R/M171V/P40L/Q125E/R42F/V115G/Y59C)

Sequence of HLA-DR DRB1*0301 (DR3) (P01903 26-254 limits assumed, other chains not shown): as above

Work on VGGVYLLPRRGPRLGV yielded an IC50 (HLA-DR DRB1*0301 (DR3); read-out: DRB1 *0301) of 237000 nM.

In the case of VYQLDIQSTKEDLRV, the IC50 (HLA-DR DRB1*1101 (DR11); read-out: DRB1 *1101) is reported as 7350 nM, the IC50 (HLA-DR DRB1*1302 (DR13); read-out: DRBI *1302) is reported as 708 nM and the IC50 (HLA-DR DRB4*0101 (DR53); read-out: DRB4 *0101) is reported as 226 nM. The IC50 (HLA-DR DRB5*0101 (DR51); read-out: DRB5 *0101) was 8690 nM.

VRTLQQLLMGTCTIV was tested, and the IC50 (HLA-DR DRB1*1302 (DR13); read-out: DRBI *1302) was 37 nM, the IC50 (HLA-DR DRB1*1501 (DR15); read-out: DRBI *1501) was 1830 nM and the IC50 (HLA-DR DRB5*0101 (DR51); read-out: DRB5 *0101) was > 15300 nM.

TEGRCLHYTVDKSKPK was tested, and the IC50 (HLA-DR DRB1*0401 (DR4); DRB1 *0401) was 200 nM, the IC50 (HLA-DR DRB1*0701 (DR7); DRB1 *0701) was > 250000 nM and the IC50 (HLA-DR DRB1*1101 (DR11); DRB1 *1101) was > 1250 nM.

Work on MTLYQIQVMKRNQKQ yielded an IC50 (HLA-DR DRB1*0101 (DR1); DRB1 *0101) of 1220 nM, an IC50 (HLA-DR DRB1*0401 (DR4); DRB1 *0401) of 117 nM and an IC50 (HLA-DR DRB1*0701 (DR7); DRB1 *0701) of 31100 nM. It also gave an IC50 (HLA-DR DRB1*1302 (DR13); DRBI *1302) of 323 nM, an IC50 (HLA-DR DRB1*1501 (DR15); DRBI *1501) of 2430 nM and an IC50 (HLA-DR DRB4*0101 (DR53); DRB4 *0101) of 82 nM. It also gave an IC50 (HLA-DR DRB5*0101 (DR51); DRB5 *0101) of 22 nM.

In the case of DFVFADLRIVYRDGN, the IC50 (HLA-DR DRB1*1101 (DR11); read-out: DRB1 *1101) is reported as 6960 nM, the IC50 (HLA-DR DRB4*0101 (DR53); read-out: DRB4 *0101) is reported as 6710 nM and the IC50 (HLA-DR DRB5*0101 (DR51); read-out: DRB5 *0101) is reported as 8430 nM.

For EEYVRFDSDVGE, the IC50 (HLA-DR DRB1*0101 (DR1); DRB1 *0101) was ≥ 50000 nM, the IC50 (HLA-DR DRB1*0401 (DR4); DRB1 *0401) was 216 nM and the IC50 (HLA-DR DRB1*1101 (DR11); DRB1 *1101) was ≥ 200000 nM. The IC50 (HLA-DR DRB5*0101 (DR51); DRB5 *0101) was ≥ 200000 nM.

LSHFLKEKGGLEGL was tested, and the IC50 (HLA-DR DRB1*0101 (DR1); read-out: DRB1 *0101) was 537 nM and the IC50 (HLA-DR DRB1*0301 (DR3); read-out: DRB1 *0301) was > 341000 nM.

Compound LAHYDVLLSYPNKTA has an IC50 (HLA-DR DRB1*1101 (DR11); read-out: DRB1 *1101) of 380 nM, an IC50 (HLA-DR DRB1*1501 (DR15); read-out: DRBI *1501) of 82 nM and an IC50 (HLA-DR DRB4*0101 (DR53); read-out: DRB4 *0101) of 589 nM.

QKKYIYNLIMNTQNK gave an IC50 (HLA-DR DRB1*0101 (DR1); DRB1 *0101) of 73 nM, an IC50 (HLA-DR DRB1*0401 (DR4); DRB1 *0401) of 24 nM and an IC50 (HLA-DR DRB1*0701 (DR7); DRB1 *0701) of 11900 nM. It also gave an IC50 (HLA-DR DRB1*1302 (DR13); DRBI *1302) of 53 nM, an IC50 (HLA-DR DRB1*1501 (DR15); DRBI *1501) of 844 nM and an IC50 (HLA-DR DRB4*0101 (DR53); DRB4 *0101) of 87 nM.

ENEYATGAVRPFQAA was tested, and the IC50 (HLA-DR DRB1*0101 (DR1); DRB1 *0101) was 4440 nM, the IC50 (HLA-DR DRB1*0401 (DR4); DRB1 *0401) was 281 nM and the IC50 (HLA-DR DRB1*0701 (DR7); DRB1 *0701) was 4970 nM. It also gave an IC50 (HLA-DR DRB1*1302 (DR13); DRBI *1302) of 9300 nM, an IC50 (HLA-DR DRB1*1501 (DR15); DRBI *1501) of 3010 nM and an IC50 (HLA-DR DRB4*0101 (DR53); DRB4 *0101) of 10000 nM. The IC50 (HLA-DR DRB5*0101 (DR51); DRB5 *0101) was > 10300 nM.

KSKFNILSSPLFNNF was tested, and the IC50 (HLA-DR DRB1*0101 (DR1); read-out: DRB1 *0101) was 0.8 nM, the IC50 (HLA-DR DRB1*0401 (DR4); read-out: DRB1 *0401) was 16 nM and the IC50 (HLA-DR DRB1*0701 (DR7); read-out: DRB1 *0701) was 65 nM. For the same compound, the IC50 (HLA-DR DRB1*1302 (DR13); read-out: DRBI *1302) was 25 nM, the IC50 (HLA-DR DRB1*1501 (DR15); read-out: DRBI *1501) was 5.9 nM and the IC50 (HLA-DR DRB5*0101 (DR51); read-out: DRB5 *0101) was 32 nM.

In the case of Ac-ASQKRPSQRHGSKYLATAST, the IC50 (HLA-DR DRB1*0301 (DR3)) is reported as > 900000 nM.

For `CC[C@H](C)[C@H](NC(=O)[C@H](C)NC(=O)[C@H](CCC(N)=O)NC(=O)[C@H](CCCNC(=N)N)NC(=O)[C@H](CC(C)C)NC(=O)[C@H](C)NC(=O)[C@@H](NC(=O)[C@H](Cc1c[nH]cn1)NC(=O)[C@H](Cc1c[nH]cn1)NC(=O)[C@@H]1CCCN1)[C@@H](C)O)C(=O)N[C@@H](CC(C)C)C(=O)N[C@@H](CO)C(=O)N[C@@H](Cc1c[nH]c2ccccc12)C(=O)NCC(=O)N[C@@H](CCC(=O)O)C(=O)N[C@@H](CC(C)C)C(=O)N[C@@H](CCSC)C(=O)N[C@H](C(=O)N[C@@H](CC(C)C)C(=O)N[C@@H](C)C(=O)O)[C@@H](C)O`, the IC50 (HLA-DR DRB1*0701 (DR7)) was 14400 nM, the IC50 (HLA-DR DRB1*1101 (DR11)) was 3120 nM and the IC50 (HLA-DR DRB1*1501 (DR15)) was 5.3 nM. The IC50 (HLA-DR DRB4*0101 (DR53)) was 48 nM.

In the case of CIVYRDCIAYAACHK, the IC50 (HLA-DR DRB1*0401 (DR4); read-out: DRB1 *0401) is reported as 928 nM, the IC50 (HLA-DR DRB1*0701 (DR7); read-out: DRB1 *0701) is reported as > 14600 nM and the IC50 (HLA-DR DRB1*1101 (DR11); read-out: DRB1 *1101) is reported as 35600 nM. The IC50 (HLA-DR DRB5*0101 (DR51); read-out: DRB5 *0101) was 1910 nM.

In the case of REYILDLHPEPTDLF, the IC50 (HLA-DR DRB1*1101 (DR11); read-out: DRB1 *1101) is reported as 4150 nM, the IC50 (HLA-DR DRB1*1501 (DR15); read-out: DRBI *1501) is reported as > 33100 nM and the IC50 (HLA-DR DRB5*0101 (DR51); read-out: DRB5 *0101) is reported as > 31400 nM.
